In brackets after ≈: the same amount, converted by molar mass. Bounds are passed on as bounds.

The subject of the first experiment is Streptococci. In words: Minimum inhibitory concentration, microdilution broth method, streptococci. To be noted: S. pneumo GC 1894; Mueller-Hinton broth with 5% horse blood, 18-22 hours at 35° C. The experiment is classed as cell-based. Summed up: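 Following NCCLS standard M7-A5, MICs were determined by microdilution in Mueller-Hinton broth, with 5% horse blood added for streptococci.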
The term MIC denotes the least concentration at which growth counts as inhibited. The low end stands for inhibition by little substance, the high end for a need for much substance. Regarding `Cc1ccccc1-c1ccc(/C=C2\OC(=O)C(c3cccc(Cl)c3)=C2O)cc1C` [Example 28], the minimum inhibitory concentration (MIC) was under 0.125 µg/mL.
Same read-out and setting: under `Cc1ccccc1-c1ccc(/C=C2\OC(=O)C(c3cc(Cl)cc(Cl)c3)=C2O)cc1C` [Example 29] stands under 0.125 µg/mL; under `Cc1cc(/C=C2\OC(=O)C(c3cccc(Cl)c3)=C2O)ccc1-c1ccccc1Cl` [Example 30], 0.25 µg/mL (≈ 0.591 µM); under `COc1cc(/C=C2\OC(=O)C(c3cccc(Cl)c3)=C2O)ccc1-c1ccccc1C(F)(F)F` [Example 32], 0.5 µg/mL (≈ 1.06 µM).
Same read-out and setting: the same measure for `COc1cc(/C=C2\OC(=O)C(c3cc(Cl)cc(Cl)c3)=C2O)ccc1-c1ccccc1C(F)(F)F` [Example 33]: 0.5 µg/mL (≈ 0.986 µM).
Still for that read-out and setting: the same measure for `O=C1O/C(=C\c2ccc(Cl)cc2)C(O)=C1c1ccc2ccccc2c1` [Example 43]: 1 µg/mL (≈ 2.87 µM); for `O=C1O/C(=C\c2cccc3ccccc23)C(O)=C1c1cc(Cl)cc(Cl)c1` [Example 70]: 0.5 µg/mL (≈ 1.3 µM).
For the compound `O=C1O/C(=C\c2cccc3ccccc23)C(O)=C1c1ccc(C(F)(F)F)cc1` [Example 71], the MIC was 0.5 µg/mL (≈ 1.31 µM).
Compound `COc1cccc(C2=C(O)/C(=C/c3cccc4ccccc34)OC2=O)c1` [Example 72] returned an MIC of 32 µg/mL (≈ 92.9 µM).
On the same count and under the same terms, the same measure for `COC(=O)c1ccc(C2=C(O)/C(=C/c3cccc4ccccc34)OC2=O)cc1` [Example 74]: 32 µg/mL (≈ 85.9 µM).
The same measure, in the same setting: the same measure for `O=Cc1cccc(C2=C(O)/C(=C/c3cccc4ccccc34)OC2=O)c1` [Example 76]: 64 µg/mL (≈ 187 µM); for `CN(C)c1ccc(/C=C2\OC(=O)C(c3ccc(Cl)cc3)=C2O)c2ccccc12` [Example 78]: 2 µg/mL (≈ 5.1 µM).
Same read-out and setting: the same measure for `CN(C)c1ccc(/C=C2\OC(=O)C(c3cc(Cl)cc(Cl)c3)=C2O)c2ccccc12` [Example 79]: 0.5 µg/mL (≈ 1.17 µM).
For the compound `CN(C)c1ccc(/C=C2\OC(=O)C(c3ccc(C(F)(F)F)cc3)=C2O)c2ccccc12` [Example 81], 1 µg/mL (≈ 2.35 µM) was the least that counted as inhibitory (MIC). Compared with the last compound, the MIC is about 2-fold higher.

The target in another experiment is E. coli Enopyruvyl-UPD-N-acetylglucosamine reductase, Mur B (Escherichia coli, UniProt P08373). Nature of the experiment: biochemical. To be noted: (E) E. coli enzyme; read-out: MurB IC50 (converted).
Chain of E. coli Enopyruvyl-UPD-N-acetylglucosamine reductase, Mur B (P08373 whole entry): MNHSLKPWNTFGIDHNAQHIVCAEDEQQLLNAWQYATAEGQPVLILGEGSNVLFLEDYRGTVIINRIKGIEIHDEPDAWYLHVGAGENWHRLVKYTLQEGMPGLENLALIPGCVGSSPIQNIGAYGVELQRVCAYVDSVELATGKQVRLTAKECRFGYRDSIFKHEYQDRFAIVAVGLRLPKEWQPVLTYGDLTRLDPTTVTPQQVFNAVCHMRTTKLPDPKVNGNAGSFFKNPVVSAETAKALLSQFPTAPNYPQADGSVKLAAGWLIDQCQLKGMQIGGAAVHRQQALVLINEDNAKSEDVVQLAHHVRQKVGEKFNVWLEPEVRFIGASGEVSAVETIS
In general, IC50 refers to the point on the concentration scale where inhibition reaches its midpoint. For the compound `Cc1ccccc1-c1ccc(/C=C2\OC(=O)C(c3cccc(Cl)c3)=C2O)cc1C` [Example 28], the IC50 was 7.45 µM.
Take `Cc1ccccc1-c1ccc(/C=C2\OC(=O)C(c3cc(Cl)cc(Cl)c3)=C2O)cc1C` [Example 29]: the 50% inhibitory concentration (IC50) was 4.57 µM.
Consider `Cc1cc(/C=C2\OC(=O)C(c3cccc(Cl)c3)=C2O)ccc1-c1ccccc1Cl` [Example 30], for which the concentration for half-maximal inhibition (IC50) is 4.72 µM.
The same measure, in the same setting: under `COc1cc(/C=C2\OC(=O)C(c3cccc(Cl)c3)=C2O)ccc1-c1ccccc1C(F)(F)F` [Example 32] stands 12.7 µM.
For the compound `COc1cc(/C=C2\OC(=O)C(c3cc(Cl)cc(Cl)c3)=C2O)ccc1-c1ccccc1C(F)(F)F` [Example 33], the IC50 was 3.94 µM.
Still for that read-out and setting: under `O=C1O/C(=C\c2ccc(Cl)cc2)C(O)=C1c1ccc2ccccc2c1` [Example 43] stands 17.2 µM; under `O=C1O/C(=C\c2cccc3ccccc23)C(O)=C1c1cc(Cl)cc(Cl)c1` [Example 70], 18.3 µM.
Still for that read-out and setting: under `O=C1O/C(=C\c2cccc3ccccc23)C(O)=C1c1ccc(C(F)(F)F)cc1` [Example 71] stands 26.2 µM; under `COc1cccc(C2=C(O)/C(=C/c3cccc4ccccc34)OC2=O)c1` [Example 72], 61 µM.
On the same count and under the same terms, the same measure for `COC(=O)c1ccc(C2=C(O)/C(=C/c3cccc4ccccc34)OC2=O)cc1` [Example 74]: 59.1 µM; for `O=Cc1cccc(C2=C(O)/C(=C/c3cccc4ccccc34)OC2=O)c1` [Example 76]: 20.4 µM.
`CN(C)c1ccc(/C=C2\OC(=O)C(c3ccc(Cl)cc3)=C2O)c2ccccc12` [Example 78]: the half-maximal inhibitory concentration (IC50) is 7.66 µM.
Same read-out and setting: under `CN(C)c1ccc(/C=C2\OC(=O)C(c3cc(Cl)cc(Cl)c3)=C2O)c2ccccc12` [Example 79] stands 14.1 µM; under `CN(C)c1ccc(/C=C2\OC(=O)C(c3ccc(C(F)(F)F)cc3)=C2O)c2ccccc12` [Example 81], 54.1 µM.

A further experiment addresses T1, S. aureus Enopyruvyl-UPD-N-acetylglucosamine reductase, Mur B (Staphylococcus aureus, UniProt P61431).
T1 sequence (P61431 1-307): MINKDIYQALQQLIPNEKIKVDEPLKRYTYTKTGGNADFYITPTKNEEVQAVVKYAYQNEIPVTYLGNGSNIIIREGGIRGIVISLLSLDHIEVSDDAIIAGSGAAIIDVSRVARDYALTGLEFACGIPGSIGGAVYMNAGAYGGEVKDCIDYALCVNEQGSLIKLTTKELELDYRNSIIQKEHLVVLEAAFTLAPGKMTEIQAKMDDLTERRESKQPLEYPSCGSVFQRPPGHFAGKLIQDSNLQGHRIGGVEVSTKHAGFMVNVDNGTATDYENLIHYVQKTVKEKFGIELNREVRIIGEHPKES
Nature of the experiment: biochemical. The settings on record: (S) S. aureus enzyme; read-out: MurB IC50 (converted).
For the compound `Cc1ccccc1-c1ccc(/C=C2\OC(=O)C(c3cccc(Cl)c3)=C2O)cc1C` [Example 28], the IC50 was 7.45 µM.
Still for that read-out and setting: the same measure for `Cc1ccccc1-c1ccc(/C=C2\OC(=O)C(c3cc(Cl)cc(Cl)c3)=C2O)cc1C` [Example 29]: 4.57 µM; for `Cc1cc(/C=C2\OC(=O)C(c3cccc(Cl)c3)=C2O)ccc1-c1ccccc1Cl` [Example 30]: 4.72 µM; for `COc1cc(/C=C2\OC(=O)C(c3cccc(Cl)c3)=C2O)ccc1-c1ccccc1C(F)(F)F` [Example 32]: 6.34 µM.
Same read-out and setting: under `COc1cc(/C=C2\OC(=O)C(c3cc(Cl)cc(Cl)c3)=C2O)ccc1-c1ccccc1C(F)(F)F` [Example 33] stands 3.94 µM.
Still for that read-out and setting: under `O=C1O/C(=C\c2ccc(Cl)cc2)C(O)=C1c1ccc2ccccc2c1` [Example 43] stands 14.3 µM; under `O=C1O/C(=C\c2cccc3ccccc23)C(O)=C1c1cc(Cl)cc(Cl)c1` [Example 70], 13 µM.
In the case of `O=C1O/C(=C\c2cccc3ccccc23)C(O)=C1c1ccc(C(F)(F)F)cc1` [Example 71], the 50% inhibitory concentration (IC50) is 26.2 µM.
Take `COc1cccc(C2=C(O)/C(=C/c3cccc4ccccc34)OC2=O)c1` [Example 72]: the half-maximal inhibitory concentration (IC50) was 58.1 µM.
Take `COC(=O)c1ccc(C2=C(O)/C(=C/c3cccc4ccccc34)OC2=O)cc1` [Example 74]: the concentration for half-maximal inhibition (IC50) is 26.9 µM.
The same measure, in the same setting: under `O=Cc1cccc(C2=C(O)/C(=C/c3cccc4ccccc34)OC2=O)c1` [Example 76] stands 14.6 µM.
The same measure, in the same setting: under `CN(C)c1ccc(/C=C2\OC(=O)C(c3ccc(Cl)cc3)=C2O)c2ccccc12` [Example 78] stands 33.2 µM.
Same read-out and setting: the same measure for `CN(C)c1ccc(/C=C2\OC(=O)C(c3cc(Cl)cc(Cl)c3)=C2O)c2ccccc12` [Example 79]: 2.35 µM; for `CN(C)c1ccc(/C=C2\OC(=O)C(c3ccc(C(F)(F)F)cc3)=C2O)c2ccccc12` [Example 81]: 35.3 µM.

The next experiment addresses T2, S. aureus Uridine-diphosphate-N-acetvimuramoyl: L-alanine lipase, MurC (Staphylococcus aureus, UniProt Q2FXJ0).
T2 sequence (Q2FXJ0 1-437): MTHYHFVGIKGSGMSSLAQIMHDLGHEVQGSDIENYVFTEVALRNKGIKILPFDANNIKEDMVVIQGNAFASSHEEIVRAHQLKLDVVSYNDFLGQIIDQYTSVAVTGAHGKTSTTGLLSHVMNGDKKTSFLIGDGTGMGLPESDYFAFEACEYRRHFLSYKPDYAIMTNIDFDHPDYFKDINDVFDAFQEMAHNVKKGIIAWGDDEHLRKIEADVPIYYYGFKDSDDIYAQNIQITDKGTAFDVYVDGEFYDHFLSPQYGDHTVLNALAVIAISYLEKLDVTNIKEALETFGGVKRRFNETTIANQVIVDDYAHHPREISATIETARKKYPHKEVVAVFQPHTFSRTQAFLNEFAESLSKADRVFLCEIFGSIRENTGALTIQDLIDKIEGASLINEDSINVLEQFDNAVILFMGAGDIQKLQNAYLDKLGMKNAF
In words: biochemical.
Details: not given
The method, then:
S. aureus and E. coli Uridine-diphosphate-N-acetvimuramoyl: L-alanine lipase, MurC
Preparation of Enzyme Solution:
A 1 mg/mL stock solution of MurC is prepared in a buffer consisting of 20 mM Tris/HCl (pH 8.5) with 2.5 μM BME. The stock solution is further diluted with the buffer to give a final enzyme concentration of 100 μg/mL for the E. coli stock solution and 70 μg/mL for the S. aureus stock solution.
Preparation of Test Compound Solutions:
All test solutions are prepared in DMSO as 10 mg/mL, then diluted with 50 mM Tris/HCl (pH 8.5) to 100 μg/mL.
Preparation of Stop Solution:
The stop solution is prepared by stirring 1 part 4.2% ammonium molydbate in 4N HCl with 2 parts 0.045% malachite green for 30 min.
In this evaluation, the inhibitory activity of a test compound against MurC, the enzyme which catalyzes the third step of bacterial cell wall bioxynthesis is determined. Experiments are performed by adding 2.5 μl buffer, 2.5 μl 0.5M NH4SO2, 5 μl 2 μM L-Ala, 5 μl enzyme solution and 6.5 μl test compound solution to each well in a 96-well microplate. After a pre-incubation period of 10 mins. at 23° C., 3.75 μl of a 0.75 μM solution of UDP-MurNac is added to each well. Following an incubation period of 10 mins. at 37° C., 210 μl stop solution and 50 μl of a 34% w/v sodium citrate solution are added and color is allowed to develop for 10 mins. at 23° C. (Lanzetta et al., Analytical Biochemistry, 1979, 95) Optical density readings are taken at 660 nm using a Molecular Devices Spectra Max 250 with Soft Max software. Controls are performed using the same procedure and omitting the addition of UDP-MurNac. […]
Using these values the IC50 is determined by linear regression analysis.
`O=C1O/C(=C\c2cccc3ccccc23)C(O)=C1c1ccc(C(F)(F)F)cc1` [Example 71] showed an IC50 of 52.3 µM.

Still in this experiment, the particulars now being: (S) S. aureus enzyme; read-out: MurC IC50 (converted).
As for `Cc1ccccc1-c1ccc(/C=C2\OC(=O)C(c3cccc(Cl)c3)=C2O)cc1C` [Example 28], the half-inhibitory concentration (IC50) was over 62.1 µM.
Same read-out and setting: the same measure for `Cc1ccccc1-c1ccc(/C=C2\OC(=O)C(c3cc(Cl)cc(Cl)c3)=C2O)cc1C` [Example 29]: 54.9 µM; for `Cc1cc(/C=C2\OC(=O)C(c3cccc(Cl)c3)=C2O)ccc1-c1ccccc1Cl` [Example 30]: over 59.1 µM; for `COc1cc(/C=C2\OC(=O)C(c3cccc(Cl)c3)=C2O)ccc1-c1ccccc1C(F)(F)F` [Example 32]: 25.4 µM.
Same read-out and setting: under `COc1cc(/C=C2\OC(=O)C(c3cc(Cl)cc(Cl)c3)=C2O)ccc1-c1ccccc1C(F)(F)F` [Example 33] stands over 49.3 µM.
The same measure, in the same setting: under `O=C1O/C(=C\c2ccc(Cl)cc2)C(O)=C1c1ccc2ccccc2c1` [Example 43] stands 60.2 µM.
As for `O=C1O/C(=C\c2cccc3ccccc23)C(O)=C1c1cc(Cl)cc(Cl)c1` [Example 70], the IC50 is 20.9 µM.
Same read-out and setting: the same measure for `COc1cccc(C2=C(O)/C(=C/c3cccc4ccccc34)OC2=O)c1` [Example 72]: over 72.6 µM; for `COC(=O)c1ccc(C2=C(O)/C(=C/c3cccc4ccccc34)OC2=O)cc1` [Example 74]: 48.3 µM.
Still for that read-out and setting: under `O=Cc1cccc(C2=C(O)/C(=C/c3cccc4ccccc34)OC2=O)c1` [Example 76] stands 52.6 µM; under `CN(C)c1ccc(/C=C2\OC(=O)C(c3ccc(Cl)cc3)=C2O)c2ccccc12` [Example 78], 53.6 µM.
Still for that read-out and setting: under `CN(C)c1ccc(/C=C2\OC(=O)C(c3cc(Cl)cc(Cl)c3)=C2O)c2ccccc12` [Example 79] stands 56.3 µM.
For `CN(C)c1ccc(/C=C2\OC(=O)C(c3ccc(C(F)(F)F)cc3)=C2O)c2ccccc12` [Example 81], the IC50 was 37.6 µM.

For the origin of these results see patent US7495027B2, “3-aryl-4-hydroxyfuranone compounds and the human and animal health use thereof” (Wyeth, priority 2003, dated 2009).
